Experimental data reported in paper PMC3346935 (2012).
Residues, ends and D or L forms follow the SMILES beside them.

What was measured:
[1] = test system: RNA 25 (RNA, aptamer) GGCAAGUACUCUGACGCCGAAGCCAGCCGGCGAUUGGGAACGACGGAAUUCCUCACUUCUGUUAAAGGUCAACCAGGGCGUAGAGGAGGACAGCG; assay: isocratic affinity elution from His–Phe–Sepharose; settings: 600 mM NaCl, 5 mM MgCl2, 5 mM CaCl2; 50 mM HEPES pH 7.0
[2] = test system: RNA 40 (RNA, aptamer) GGCAAGUACUCUGACGCAAGGGUAGAUAUGCGUAUAUGCAGAUCCCAAAUAAAGGACGAAUUUAGUACGGGGGGUGUGCGUAGAGGAGGACAGCG; assay: isocratic affinity elution from His–Phe–Sepharose; settings: 600 mM NaCl, 5 mM MgCl2, 5 mM CaCl2; 50 mM HEPES pH 7.0
[3] = test system: RNA 8 (RNA, aptamer) GGCAAGUACUCUGACGCAGUGGAAGUUAUGUGUAUGCGGUAGAUAGGUAACGUUCUGUCAUAGGAAGGUACUAUCGUGCGUAGAGGAGGACAGCG; assay: isocratic affinity elution from His–Phe–Sepharose; settings: 600 mM NaCl, 5 mM MgCl2, 5 mM CaCl2; 50 mM HEPES pH 7.0
[4] = test system: RNA 7 (RNA, aptamer) GGCAAGUACUCUGACGCAGAUGGAAGUACCUUUGAACUGGGGGAGAAUGGUUAUGAGAAUCUAGCGAAGCCGGAGGUGCGUAGAGGAGGACAGCG; assay: isocratic affinity elution from His–Phe–Sepharose; settings: 600 mM NaCl, 5 mM MgCl2, 5 mM CaCl2; 50 mM HEPES pH 7.0
[5] = test system: RNA 44 (RNA, aptamer) GGCAAGUACUCUGACGCUAGGCAGCGGCGAGGGAAGUUGGAGCUUAGACCAGUUAGGAGCUGGAGACCAGGCAGUCGGCGUAGAGGAGGACAGCG; assay: affinity column elution; settings: 600 mM NaCl, 5 mM MgCl2, 5 mM CaCl2; 50 mM HEPES pH 7.0
[6] = test system: RNA 13 (RNA, aptamer) GGCAAGUACUCUGACGCCUGAUGUGAUGGCCUUGGUCGAAGCGGGAUCCGACAGCUACUAUAGAGGUGUUGUCGAGGGCGUAGAGGAGGACAGCG; assay: elution from His–Phe–Sepharose by free ligand; settings: 600 mM NaCl, 5 mM MgCl2, 5 mM CaCl2; 50 mM HEPES pH 7.0; 1.5 mM dipeptide
[7] = test system: RNA 6 (RNA, aptamer) GGCAAGUACUCUGACGCCGGUGGCGCAGACAGAUUUCCAGUAUGGCACGGACCGGAGAGGGAAGGAUGACAGACGUGGCGUAGAGGAGGACAGCG; assay: elution from His–Phe–Sepharose by free ligand; settings: 600 mM NaCl, 5 mM MgCl2, 5 mM CaCl2; 50 mM HEPES pH 7.0; 1.5 mM dipeptide
[8] = test system: RNA 22 (RNA, aptamer) GGCAAGUACUCUGACGCGAAAUGUACAUGGCGUUAAAGUAGACGCAGGAUUAAGUGUGCUGUGGAGUCGAAACGCGGGCGUAGAGGAGGACAGCG; assay: elution from His–Phe–Sepharose by free ligand; settings: 600 mM NaCl, 5 mM MgCl2, 5 mM CaCl2; 50 mM HEPES pH 7.0; 1.5 mM dipeptide
[9] = test system: RNA 11 (RNA, aptamer) GGCAAGUACUCUGACGCGAGGGUGGAUACGUGUAUGCGGUUACAUCUGUGGUUUCUAAAAGAGCAAGCCGAUGUGGCGUAGAGGAGGACAGCG; assay: elution from His–Phe–Sepharose by free ligand; settings: 600 mM NaCl, 5 mM MgCl2, 5 mM CaCl2; 50 mM HEPES pH 7.0; 1.5 mM dipeptide
[10] = test system: RNA 39 (RNA, aptamer) GGCAAGUACUCUGACGCGGAUGGGCCACCAAAGCACCGAAGGGUAGGAGCCACUAACUUGCGGUGAAUGGAAGAGCGGCGUAGAGGAGGACAGCG; assay: elution from His–Phe–Sepharose by free ligand; settings: 600 mM NaCl, 5 mM MgCl2, 5 mM CaCl2; 50 mM HEPES pH 7.0; 1.5 mM dipeptide
[11] = test system: RNA 20 (RNA, aptamer) GGCAAGUACUCUGACGCGGAUGGGCCACAACGGAUCAGACGACAGGCAUUCUUUGAAGGAAAGAUCCCAGCAGAGCGGCGUAGAGGAGGACAGCG; assay: elution from His–Phe–Sepharose by free ligand; settings: 600 mM NaCl, 5 mM MgCl2, 5 mM CaCl2; 50 mM HEPES pH 7.0; 1.5 mM dipeptide
[12] = test system: RNA 23 (RNA, aptamer) GGCAAGUACUCUGACGCGGAUGGGCCAACGGCGAGCGUCGAAGGAGCUUAGUACCGAAGCAACGCAAGCGUAGAGCGGCGUAGAGGAGGACAGCG; assay: elution from His–Phe–Sepharose by free ligand; settings: 600 mM NaCl, 5 mM MgCl2, 5 mM CaCl2; 50 mM HEPES pH 7.0; 1.5 mM dipeptide
[13] = test system: RNA 33 (RNA, aptamer) GGCAAGUACUCUGACGCGCCGAAAUGGGAGGGGUGGCGUUAACCGGCAAAGCUGCACGGGCGAUGAAGAAACGCGGGGCGUAGAGGAGGACAGCG; assay: elution from His–Phe–Sepharose by free ligand; settings: 600 mM NaCl, 5 mM MgCl2, 5 mM CaCl2; 50 mM HEPES pH 7.0; 1.5 mM dipeptide
[14] = test system: RNA 12 (RNA, aptamer) GGCAAGUACUCUGACGCGUGCUGCGGGCCGUUCAUAGUGGACGGGGUAGACAGAGAACCUUAGACCAAGGUAUCGGCGCGUAGAGGAGGACAGCG; assay: elution from His–Phe–Sepharose by free ligand; settings: 600 mM NaCl, 5 mM MgCl2, 5 mM CaCl2; 50 mM HEPES pH 7.0; 1.5 mM dipeptide
[15] = test system: RNA 35 (RNA, aptamer) GGCAAGUACUCUGACGCGUGGGAAGAUACGUGUAUACGCUAACAUACGGCAAGGUGAGUAGCCGGAAGUAGCAUGUGGCGUAGAGGAGGACAGCG; assay: elution from His–Phe–Sepharose by free ligand; settings: 600 mM NaCl, 5 mM MgCl2, 5 mM CaCl2; 50 mM HEPES pH 7.0; 1.5 mM dipeptide
[16] = test system: RNA 24 (RNA, aptamer) GGCAAGUACUCUGACGCCCUGAGAGCGUAAUGUGACGGACAGUCGCACUGGAGGAGGAGGAAGUGAUGCAUCGAUCGGCGUAGAGGAGGACAGCG; assay: elution from His–Phe–Sepharose by free ligand; settings: 600 mM NaCl, 5 mM MgCl2, 5 mM CaCl2; 50 mM HEPES pH 7.0; 1.5 mM dipeptide

Row | K D [1] [mM] | K D [2] [mM] | K D [3] [mM] | K D [4] [mM] | binding [5] | binding [6] | binding [7] | binding [8] | binding [9] | binding [10] | binding [11] | binding [12] | binding [13] | binding [14] | binding [15] | binding [16] | Compound
1 | > 727 | > 227 | > 34 | > 119 | no |  |  |  |  |  |  |  |  |  |  |  | N[C@@H](Cc1cnc[nH]1)C(=O)O
2 | > 727 | > 227 | > 34 | 22 | yes |  |  |  |  |  |  |  |  |  |  |  | N[C@@H](Cc1ccccc1)C(=O)O
3 | 0.036 ± 0.002 | 0.077 ± 0.007 | 0.102 ± 0.033 | 0.478 ± 0.061 | yes | yes | yes | yes | yes | yes | yes | yes | yes | yes | yes | yes | N[C@@H](Cc1cnc[nH]1)C(=O)N[C@@H](Cc1ccccc1)C(=O)O (H-His-Phe-OH)
4 | 8.2 | 3.4 | 5.4 | 10.5 |  |  |  |  |  |  |  |  |  |  |  |  | N[C@@H](Cc1c[nH]cn1)C(=O)NCC(=O)O (H-His-Gly-OH)
5 | > 727 | 9.3 | > 34 | 31.6 |  |  |  |  |  |  |  |  |  |  |  |  | NCC(=O)N[C@@H](Cc1ccccc1)C(=O)O (H-Gly-Phe-OH)
